Holding throughout (assay): Anti-proliferation assay (ATPLite), Chalice synergy score
Format in all cases: cell-based
In general terms: ATP-based viability assays read luminescence as a measure of living cells.

For one assay, the system named is BT-20. Also noted: scale not given here. The note with it: Compound 1 in combination with the named second active agent, 72 h, mean of n = 3 experiments in triplicate. The text has this: (§1) Cells were thawed from a liquid nitrogen preserved state.
(§2) The calculation for synergy score is provided below.
(§3) If T≧V0:100*[1−(T−V0)/(V−V0)]

Another assay relates to HCC-1187. Details: scale not given here. The note with it: Compound 1 in combination with the named second active agent, 72 h, mean of n = 3 experiments in triplicate.
Text: as §1, §2, §3

A further assay relates to HCC-1500. Details: scale not given here. To be noted: Compound 1 in combination with the named second active agent, 72 h, mean of n = 3 experiments in triplicate.
Text: as §1, §2, §3

The subject of a further assay is MDA-MB-468. The note with it: Compound 1 in combination with second active agent, mean self-cross + 2σ threshold 4.66.
Text: as §1, §2, §3

The next assay deals with HCC-1428. The note with it: Compound 1 in combination with the named second active agent, 72 h, mean of n = 3 experiments in triplicate.
Text: as §1, §2, §3

The test system of the next assay is MDA-MB-436. To be noted: Compound 1 in combination with second active agent, mean self-cross + 2σ threshold 1.91.
Text: as §1, §2, §3

The subject of another assay is MDA-MB-231. The note with it: Compound 1 in combination with second active agent, mean self-cross + 2σ threshold 2.61.
Text: as §1, §2, §3

A further assay has as its system Hs-578-T. The note with it: Compound 1 in combination with second active agent, mean self-cross + 2σ threshold 4.09.
Text: as §1, §2, §3

The subject of a further assay is HCC-1937. The note with it: Compound 1 in combination with the named second active agent, 72 h, mean of n = 3 experiments in triplicate.
Text: as §1, §2, §3

For a further assay, the system named is HCC70. To be noted: Compound 1 in combination with second active agent; HCC-70; mean self-cross + 2σ threshold 3.45.
Text: as §1, §2, §3

A further assay concerns MCF7. To be noted: Compound 1 in combination with second active agent, mean self-cross + 2σ threshold 3.07.
Text: as §1, §2, §3

For another assay, the system named is BT-549. The note with it: Compound 1 in combination with the named second active agent, 72 h, mean of n = 3 experiments in triplicate.
Text: as §1, §2, §3

Another assay deals with MDA-MB-157. The note with it: Compound 1 in combination with second active agent, mean self-cross + 2σ threshold 4.68.
Text: as §1, §2, §3

Another assay concerns HCC-1806. To be noted: Compound 1 in combination with the named second active agent, 72 h, mean of n = 3 experiments in triplicate.
Text: as §1, §2, §3

Another assay concerns BT-474. The note with it: Compound 1 in combination with the named second active agent, 72 h, mean of n = 3 experiments in triplicate.
Text: as §1, §2, §3

SMILES strings stand for the structures.

With `CN(C)CCCn1cc(C2=C(c3c[nH]c4ccccc34)C(=O)NC2=O)c2ccccc21` [GF 109203X], the Synergy score with BT-20 was determined as 1.04; with HCC-1187, 4.47; in the assay on HCC-1500, 3.41; with MDA-MB-468, 10.60; in the assay with HCC-1428 it was 0.47; with MDA-MB-436, 2.60. Also, the Synergy score in the assay on MDA-MB-231 came out at 2.28; in the assay with Hs-578-T it was 2.35; in the assay on HCC-1937, 3.03; in the assay on HCC70, 4.47; with MCF7, 0.35; in the assay with BT-549, 1.73. The values for the Synergy score in the assay with MDA-MB-157, with HCC-1806 and in the assay with BT-474 were 6.19, 0.43 and 0.47, respectively.

Turning to `C[C@]12CC[C@@H]3c4ccc(O)cc4C[C@@H](CCCCCCCCC[S+]([O-])CCCC(F)(F)C(F)(F)F)[C@H]3[C@@H]1CC[C@@H]2O` (stereo partly drawn) [Fulvestrant], the Synergy score in the assay on BT-20 worked out at 1.39; in the assay with HCC-1187, 2.16; with HCC-1500 it was 5.15; in the assay on MDA-MB-468, 0.41; with HCC-1428, 1.09; in the assay with MDA-MB-436, 0.74. For the same compound, the Synergy score amounted to 0.77 in the assay with MDA-MB-231; 2.10 in the assay with Hs-578-T; 1.98 in the assay on HCC-1937; 1.50 in the assay with HCC70; 2.45 with MCF7; 1.25 with BT-549. The Synergy score in the assay with MDA-MB-157 is given as 0.42; in the assay with HCC-1806, 1.30; in the assay with BT-474, 1.37.

With `COc1ccc(-c2cc3nccn3c(Nc3ncccc3C(N)=O)n2)cc1OC.Cl` [BAY61-3606 Hydrochloride], the Synergy score with BT-20 came out at 0.20; in the assay with HCC-1187, 3.17; with HCC-1500 it was 0.02; in the assay with MDA-MB-468, 5.47; in the assay on HCC-1428, 1.21; in the assay with MDA-MB-436 it was 0.94. Further, the Synergy score worked out at 0.79 in the assay on MDA-MB-231; 5.49 in the assay with Hs-578-T; 0.18 with HCC-1937; 3.93 in the assay on HCC70; 1.49 with MCF7; 2.31 in the assay with BT-549. Further, the figures for the Synergy score in the assay with MDA-MB-157, with HCC-1806 and with BT-474 were 1.49, 0.48 and 0.04, respectively.

With `COc1cc2c(NC3CCN(C4CCCCC4)CC3)nc(N3CCCN(C(C)C)CC3)nc2cc1OCCCN1CCCCC1` [UNC 0646], the Synergy score is given as 2.59 in the assay with BT-20; 0.22 in the assay on HCC-1187; 1.11 in the assay with HCC-1500; 2.08 with MDA-MB-468; 1.66 in the assay on HCC-1428; 0.66 with MDA-MB-436. Further, the Synergy score in the assay on MDA-MB-231 is given as 0.49; with Hs-578-T, 2.20; in the assay on HCC-1937 it was 0.54; in the assay on HCC70 it was 2.03; in the assay with MCF7 it was 3.27; with BT-549, 0.91. In addition, the Synergy score in the assay with MDA-MB-157 was determined as 1.05; in the assay with HCC-1806 it was 0.53; with BT-474, 1.13.

With `COCCn1c2c([n+](Cc3cnccn3)c1C)C(=O)c1ccccc1C2=O` [YM155], the Synergy score with BT-20 is 2.67; with HCC-1187 it was 4.94; with HCC-1500, 2.81; in the assay on MDA-MB-468, 0.24; in the assay with HCC-1428 it was 1.16; in the assay on MDA-MB-436, 2.79. The Synergy score in the assay with MDA-MB-231 is 2.54; in the assay with Hs-578-T, 3.36; in the assay with HCC-1937, 5.70; with HCC70, 4.01; in the assay on MCF7 it was 1.77; in the assay on BT-549, 6.80. Moreover, the Synergy score with MDA-MB-157 is listed as 5.42; in the assay on HCC-1806, 5.52; in the assay on BT-474, 4.04.
